Reference: US4748116A, “Peptide substrates for determination of protease activity” (KabiVitrum AB, priority 1980, dated 1988)
Where a name gives a salt, the structure may show the parent alone.

Settings: pH 8.3

stability of substrate: very stable
Structure (SMILES): CC(C)C[C@H](NC(=O)[C@@H](NC(=O)OC(C)(C)C)C(C)C)C(=O)N[C@@H](CCCCN)C(=O)Nc1ccc2c(=O)[nH][nH]c(=O)c2c1 [XXI, Boc--Val--Leu--Lys--Isl.HCl]
